Results on 2 molecules are retold here after paper PMC7467771, “Lipophilic Arginine Esters: The Gateway to Preservatives without Side Effects” (Molecular Pharmaceutics, 2020).

Assay type in all cases: cell-based
One series has as its system Caco-2 cells. Briefly: resazurin assay, cytotoxicity. As to conditions: for cytotoxicity (samples showing >80% cell viability considered nontoxic): Caco-2, 4 h incubation, at 3000 μg mL^–1; for EC50: Homo sapiens, Caco-2, 4 h, read-out: EC50 (concentration causing 50% cell death). As to the method: The resazurin assay was used to determine the cytotoxic potential of Arg-esters according to a previous method with some minor modifications.[15] Caco-2 cells were seeded in a 24-well cell culture plate at 25 000 cells per well density and kept in an incubator at 37 °C under a 95% relative humidity environment and 5% CO2 level. Minimum essential medium (MEM) supplemented with streptomycin (0.1 mg […]), penicillin (100 units […]), and fetal calf serum (FCS) 10% (v/v) was used for growing cells. During a growth period of 14 days, the medium was replaced every other day. On the day of the experiment, test solutions of Arg-OL and Arg-DT esters were prepared in 25 mM HBS (HEPES buffered saline) buffer (pH 7.4) in the concentration range of 1000–3000 μg mL^–1. For comparison, the same concentrations of BAC and cetrimide were also prepared in HBS. HBS without any addition was used as a positive control, and Triton X-100 (2%, v/v) in HBS was used as a negative control. The growth medium from all wells of the cell culture plate was removed, and cells were washed three times with HBS preheated at 37 °C. Each test solution and controls were then added to individual wells in a volume of 500 μL, and the cell culture plate was incubated under the same conditions. After 4 h, the solution from each well was removed, and cells were washed with HBS (pH 7.4) preheated at 37 °C. Then, 500 μL of resazurin (2.2 mM) per well was added and incubated for further 3 h under the same conditions. Afterward, the fluorescence of the supernatant from each well was measured at the excitation wavelength of 540 nm and an emission wavelength of 590 nm. Cell viability was calculated by the equation: [drawing 4]

The next series concerns Caco-2 cell membrane. The series can be described thus: fluorescence anisotropy (DPH), membrane fluidity. As to conditions: DPH-labeled Caco-2 cells. As to the method: To evaluate membrane fluidity by fluorescence spectroscopy, a method described by Aricha et al. was adapted.[17] Caco-2 cells were labeled with fluorescent probe DPH (1,6-diphenyl-1,3,5-hexatriene). For this, a 1 mM solution of DPH was prepared in acetone. A Caco-2 cell monolayer in a 15 mL cell flask after washing with sterile PBS was trypsinized and resuspended in 10 mM HBS (pH 7.4) at a concentration of 2 × 10^5 cells mL^–1. Then a 1 mM DPH solution (10 μL) was added to a Caco-2 cell suspension (5 mL) and kept for incubation at 37 °C in the dark. After 1 h, cells were centrifuged at 588 rpm for 3 min, and solvent was removed to get rid of the free probe. Cells were resuspended in the same volume of HBS. Samples of Arg-surfactants were prepared in HBS in concentrations of 2000, 1000, and 500 μg mL^–1. Then each sample solution was mixed with a DPH-labeled cell suspension in equal volumes and incubated at room temperature in the dark. HBS mixed in an equal volume with the DPH-labeled cell suspension was used as a control. At specific time points, fluorescence polarization data were obtained using an excitation wavelength of 350 nm and an emission wavelength of 420 nm, and anisotropy was calculated using the following equation: [drawing 5] where I∥ and I⊥ are the fluorescence intensities parallel and perpendicular to the direction of the excitation light beam.
A general note: Fluorescence polarisation rises when a labelled molecule tumbles more slowly, as on binding a larger partner.

Series [1] concerns Bacillus subtilis ATCC 6633. Briefly: MIC testing by the microdilution method. As to conditions: Bacillus subtilis, ATCC6633, read-out: minimum inhibitory concentration. As to the method: (§1) Following bacterial strains were used for antimicrobial susceptibility testing: Escherichia coli ATCC 25922, Staphylococcus aureus ATCC 29213, Bacillus subtilis ATCC 6633, and Enterococcus faecalis ATCC 19433, which were obtained from the American Type Culture Collection (ATCC, Virginia, USA).
(§2) The MIC is the lowest concentration of a substance that leads to a clearly visible growth inhibition after a defined incubation period. To evaluate the MIC of Arg-DT, Arg-OL, BAC, and cetrimide, a microdilution test was performed according to the guidelines of the Clinical and Laboratory Standards Institute.[19] First of all, similarly, as for the disk diffusion test, microorganisms were dissolved in saline and set to a 0.5 McFarland standard turbidity. This corresponds to a bacterial concentration of 1.5 × 10^8 colony-forming units per milliliter (CFU mL^–1); 50 μL of the bacterial suspension was added to 10 mL of Mueller Hinton Bouillon (MHB, Becton Dickinson, New Jersey, USA). The stock solutions were prepared as follows: the test compounds Arg-OL, Arg-DT, BAC, and cetrimide were dissolved in water with 10% (v/v) DMSO at a concentration of 10 mg mL^–1. The obtained solutions were used to prepare serial dilutions. The tested concentration for each substance ranged from 5000 to 5 μg mL^–1. Each test sample was added to a flat-bottomed tissue plate well in the volume of 75 μL. The first well of the tissue plate containing 75 μL of water with 10% (v/v) DMSO instead of any test sample was used as a positive control. Finally, 75 μL of the bacterial suspension was added to each well, and the plates were incubated at 37 °C overnight.
(§3) Before measuring the optical density (OD), plates were shaken for 15 min at 250 rpm. The OD was measured using the Bio-Rad 680 microplate reader (Hercules, California, USA) at a wavelength of 490 nm. Inhibition of bacterial growth was defined as a reduction of growth for at least 5 log units. Experiments were performed three times under analogous conditions for each bacterial strain and each tested sample.
For orientation: Dilution methods test growth across graded concentrations, often in twofold steps.

For series [2], the system named is Enterococcus faecalis ATCC 19433. The series can be described thus: MIC testing by the microdilution method. Conditions: Enterococcus faecalis, ATCC19433, read-out: minimum inhibitory concentration. As to the method: as §1, §2, §3
The test system of series [3] is Escherichia coli ATCC 25922. The series can be described thus: MIC testing by the microdilution method. Conditions: Escherichia coli, ATCC25922, read-out: minimum inhibitory concentration. As to the method: as §1, §2, §3
The subject of series [4] is Staphylococcus aureus ATCC 29213. Briefly: MIC testing by the microdilution method. Conditions: Staphylococcus aureus, ATCC29213, read-out: minimum inhibitory concentration. As to the method:
as §1, §2, §3

In the case of `CCCCCCCCCCCCC(CCCCCCCCCC)COC(=O)[C@@H](N)CCCNC(=N)N.O=C(O)C(F)(F)F` (some centres unmarked) [Arg-DT, 2-Decyltetradecyl Argininate Trifluoroacetate], in the series with Caco-2 cells, the “cytotoxicity (samples showing >80% cell viability considered nontoxic)” value is reported as “noncytotoxic”. In addition, in the series with Caco-2 cells, the EC50 was determined as 4500 µg/mL. Moreover, the changes in anisotropy entry in the series on Caco-2 cell membrane (< 1000 μg mL^–1) is “not significant”. The MIC in series [1] was 5 µg/mL; in series [2] it was 10 µg/mL; in series [3], 39 µg/mL; in series [4], 10 µg/mL.
`CCCCCCCCC=CCCCCCCCCOC(=O)[C@@H](N)CCCNC(=N)N.O=C(O)C(F)(F)F` [Arg-OL, Octadec-9-en-1-yl Argininate Trifluoroacetate]: the “cytotoxicity (samples showing >80% cell viability considered nontoxic)” value in the series on Caco-2 cells was “cytotoxic”. In addition, the EC50 in the series with Caco-2 cells was 2600 µg/mL. Also, the “decrease in the anisotropy value as compared to the control” value in the series on Caco-2 cell membrane (within 2 h) is on record as over 30%. In addition, the MIC was 5 µg/mL in series [1], 5 µg/mL in series [2], 20 µg/mL in series [3] and 10 µg/mL in series [4].
